In patent US20170231922A1, “3, 5-DIHYDROXY-4-ISOPROPYLSTILBENE (DHIS) AS MITICIDAL AGENT AND ITS THERAPEUTIC USES” (Horizon GenoMed Therapeutics, Inc, priority 2016, published 2017):

Assays:
[1] = system: demodex mites; assay: Case study, acne patient; type: in vivo, human; details: Case 2, person with acne, DHIS 0.75% cream BID, 4 weeks
Source text: Case 2 involved a person with more than 3 years of acnes symptoms. They had open comedons as well as closed comedons. There were papules and pustules but only mild erythema. They had received topical retinoic acid therapy with no improvement. In addition, they received benzoyl peroxide/antibiotic combination topical therapy, oral birth control pills, oral tetracycline, as well as oral Traditional Chinese Medicine concoction, all without satisfactory effects. They had increased demodex mite count at base line. […] Their facial acne papules and pustules resolved at the end of 4 weeks. See photos of the acne patient (cheeks and forehead) prior to treatment (FIGS. 4A and 5A) and after 4 weeks of treatment (FIGS. 4B and 5B).

[2] = system: demodex mites; assay: Case study, rosacea patient; type: in vivo, human; details: Case 1, person with rosacea, DHIS 0.75% cream BID for 4 weeks
Source text: Case 1 involved a person with rosacea for 11 years. They had facial erythema and papules and pustules, with mild telangiectasia. There was burning sensation. This was associated with mild rhinophyma. There was foreign body sensation in the eyes. They had received tetracycline and sulfonamide based creams with no obvious improvement. At base line, there was more than usual number of demodex mites. They received DHIS 0.75% cream treatment BID for 4 weeks. […] See photos of the rosacea patient prior to treatment (FIG. 3A) and after 4 weeks of treatment (FIG. 3B).

[3] = system: D. folliculorum; assay: In vitro miticidal assay, survival of isolated human demodex mites under microscopy; details: for Number mites dead / (%) mites dead: D. folliculorum; for Number mites dead: 30 mites per slide
Description: (§1) DHIS has potent miticidal activities. As described herein, an in vitro miticidal assay was performed to determine the miticidal activities of DHIS by using human demodex mites prepared with pressure scraping method, following by microscopic examination of the survival time of demodex under microscopy, using the method described in Chinese Journal of Parasitology and Parasitic Diseases 2011; 29:258-263.
(§2) In vitro miticidal assay was performed using human demodex mites prepared with pressure scraping method, following by microscopic examination of the survival time of demodex under microscopy, using the method described in Chinese Journal of Parasitology and Parasitic Diseases (Supra).
(§3) […] The slides were incubated at room temperature (20° C.) and under 70% humidity. The slides were examined under microscopy every 60 minutes for 8 hours after treatment. At each time point, the percentage of dead mites (no movements for 1 minute) was recorded for each treatment concentration.

[4] = system: D. bravis; assay: as above; details: for Number mites dead: 30 mites per slide
Description: as §1, §2, §3

[5] = system: demodex mites; assay: Topical DHIS cream in volunteers with papulopustular rosacea (FIG. 1); type: in vivo, human; details: DHIS 0.75% cream twice daily
Description: (§4) A total of 20 volunteers (10 with papulopustular rosacea, 10 with papulopustular acne vulgaris) were recruited for this observation.
(§5) For each volunteer, the duration of the condition, the baseline sign and symptoms of their facial conditions and the severity of their condition were recorded. For the signs of the condition, papules and pustules were counted as total number for each individual. Erythema was rated as severe (3, deep red to purple), moderate (2, red), mild (1, pink), or none (0, normal color). For burning and pruritus, visual analogue scale (10 cm line) was used, with the score recorded from 0 (no symptoms) to 10 cm (most severe). In addition, the baseline demodex mite density of the perinasal skin was measured using the modified pressure-scraping technique. For the purpose of this study, both D. folliculorum and D. bravis were counted together. Then each volunteer used DHIS topical cream at 0.75% concentration, twice daily to the affected areas on the face. They were seen again at 4 weeks, when the clinical signs and symptoms were recorded. Further the demodex mite density was assessed again using the modified pressure/scraping technique.
(§6) Individuals with papulopustular rosacea (FIG. 1, N=10) and acne (FIG. 2, N=10) received DHIS 0.75% cream twice daily for 4 weeks. The demodex mite density (mite/cm^2) and clinical signs/symptoms are assessed at the baseline and again at 4 weeks. Papules and pustules are counted or the entire facial area for each individual. Erythema was graded as mild (1, pink), moderate (2, red), or severe (3, purple-red), whereas itchiness and burning sensation were graded according to a 10 cm visual analogue scale. * denotes p<0.05 (t-test)

[6] = system: demodex mites; assay: Topical DHIS cream in volunteers with papulopustular acne vulgaris (FIG. 2); type: in vivo, human; details: acne patients, DHIS 0.75% cream twice daily
Description: as §4, §5, §6

CC(C)c1c(O)cc(/C=C/c2ccccc2)cc1O [DHIS, 3,5-Dihydroxy-4-isopropyl-trans-stilbene]
facial acne papules and pustules [1]: resolved | facial demodex mite density [1]: significantly decreased | demodex mite density [2]: markedly decreased | rosacea signs and symptoms [2]: dramatically improved | Number mites dead ([3]; DHIS 1 μM, 0 hr): 0 | (%) mites dead ([3]; DHIS 1 μM, 1 hr): (10) % | Number mites dead ([3]; DHIS 1 μM, 1 hr): 3 | (%) mites dead ([3]; DHIS 1 μM, 2 hr): (17) % | Number mites dead ([3]; DHIS 1 μM, 2 hr): 5 | (%) mites dead ([3]; DHIS 1 μM, 3 hr): (28) % | Number mites dead ([3]; DHIS 1 μM, 3 hr): 8.6 | (%) mites dead ([3]; DHIS 1 μM, 4 hr): (43) % | Number mites dead ([3]; DHIS 1 μM, 4 hr): 13 | Number mites dead ([3]; DHIS 10 μM, 0 hr): 0 | (%) mites dead ([3]; DHIS 10 μM, 1 hr): (23) % | Number mites dead ([3]; DHIS 10 μM, 1 hr): 7 | (%) mites dead ([3]; DHIS 10 μM, 2 hr): (41) % | Number mites dead ([3]; DHIS 10 μM, 2 hr): 12.3 | (%) mites dead ([3]; DHIS 10 μM, 3 hr): (47) % | Number mites dead ([3]; DHIS 10 μM, 3 hr): 14 | (%) mites dead ([3]; DHIS 10 μM, 4 hr): (73) % | Number mites dead ([3]; DHIS 10 μM, 4 hr): 22 | Number mites dead ([3]; DHIS 100 μM, 0 hr): 0 | (%) mites dead ([3]; DHIS 100 μM, 1 hr): (33) % | Number mites dead ([3]; DHIS 100 μM, 1 hr): 10 | (%) mites dead ([3]; DHIS 100 μM, 2 hr): (72) % | Number mites dead ([3]; DHIS 100 μM, 2 hr): 21.7 | (%) mites dead ([3]; DHIS 100 μM, 3 hr): (87) % | Number mites dead ([3]; DHIS 100 μM, 3 hr): 26 | (%) mites dead ([3]; DHIS 100 μM, 4 hr): (92) % | Number mites dead ([3]; DHIS 100 μM, 4 hr): 27.7 | Number mites dead ([3]; DHIS 1.0 mM, 0 hr): 0 | (%) mites dead ([3]; DHIS 1.0 mM, 1 hr): (43) % | Number mites dead ([3]; DHIS 1.0 mM, 1 hr): 13 | (%) mites dead ([3]; DHIS 1.0 mM, 2 hr): (80) % | Number mites dead ([3]; DHIS 1.0 mM, 2 hr): 24 | (%) mites dead ([3]; DHIS 1.0 mM, 3 hr): (93) % | Number mites dead ([3]; DHIS 1.0 mM, 3 hr): 28 | (%) mites dead ([3]; DHIS 1.0 mM, 4 hr): (97) % | Number mites dead ([3]; DHIS 1.0 mM, 4 hr): 29 | miticidal activity in vitro ([3]; human demodex mites, Example 1): dose-dependent miticidal activity | Number mites dead ([4]; DHIS 1 μM, 0 hr): 0 | (%) mites dead ([4]; DHIS 1 μM, 1 hr): (6.7) % | Number mites dead ([4]; DHIS 1 μM, 1 hr): 2 | (%) mites dead ([4]; DHIS 1 μM, 2 hr): (13) % | Number mites dead ([4]; DHIS 1 μM, 2 hr): 4 | (%) mites dead ([4]; DHIS 1 μM, 3 hr): (23) % | Number mites dead ([4]; DHIS 1 μM, 3 hr): 7 | (%) mites dead ([4]; DHIS 1 μM, 4 hr): (33) % | Number mites dead ([4]; DHIS 1 μM, 4 hr): 10 | Number mites dead ([4]; DHIS 10 μM, 0 hr): 0 | (%) mites dead ([4]; DHIS 10 μM, 1 hr): (20) % | Number mites dead ([4]; DHIS 10 μM, 1 hr): 6 | (%) mites dead ([4]; DHIS 10 μM, 2 hr): (37) % | Number mites dead ([4]; DHIS 10 μM, 2 hr): 11 | (%) mites dead ([4]; DHIS 10 μM, 3 hr): (47) % | Number mites dead ([4]; DHIS 10 μM, 3 hr): 14 | (%) mites dead ([4]; DHIS 10 μM, 4 hr): (63) % | Number mites dead ([4]; DHIS 10 μM, 4 hr): 19 | Number mites dead ([4]; DHIS 100 μM, 0 hr): 0 | (%) mites dead ([4]; DHIS 100 μM, 1 hr): (40) % | Number mites dead ([4]; DHIS 100 μM, 1 hr): 12 | (%) mites dead ([4]; DHIS 100 μM, 2 hr): (63) % | Number mites dead ([4]; DHIS 100 μM, 2 hr): 19 | (%) mites dead ([4]; DHIS 100 μM, 3 hr): (80) % | Number mites dead ([4]; DHIS 100 μM, 3 hr): 24 | (%) mites dead ([4]; DHIS 100 μM, 4 hr): (87) % | Number mites dead ([4]; DHIS 100 μM, 4 hr): 26 | Number mites dead ([4]; DHIS 1.0 mM, 0 hr): 0 | (%) mites dead ([4]; DHIS 1.0 mM, 1 hr): (47) % | Number mites dead ([4]; DHIS 1.0 mM, 1 hr): 14 | (%) mites dead ([4]; DHIS 1.0 mM, 2 hr): (60) % | Number mites dead ([4]; DHIS 1.0 mM, 2 hr): 18 | (%) mites dead ([4]; DHIS 1.0 mM, 3 hr): (87) % | Number mites dead ([4]; DHIS 1.0 mM, 3 hr): 26 | (%) mites dead ([4]; DHIS 1.0 mM, 4 hr): (87) % | Number mites dead ([4]; DHIS 1.0 mM, 4 hr): 26 | erythema ([5]; 4 weeks): reduced erythema was also statistically significant | itchiness and burning sensation ([5]; 4 weeks): reduced | lesional counts for papules and pustules ([5]; 4 weeks): dramatic reduction | demodex mite density ([5]; 4 weeks compared with baseline): significant reduction | erythema ([6]; 4 weeks): reduced erythema was also statistically significant | itchiness and burning sensation ([6]; 4 weeks): reduced | lesional counts for papules and pustules ([6]; 4 weeks): dramatic reduction | demodex mite density ([6]; 4 weeks compared with baseline): significant reduction
